Assay results from PubChem BioAssay (NCI).
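These data come from cells grown in 96-well plates and exposed to compound for 48 hours at five concentrations. TGI: total growth inhibition.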

How the values were obtained:
Test in all cases: NCI-60 cell line screen, 48 h
SNB-75 CNS = tested on: SNB-75 CNS
ACHN renal = tested on: ACHN renal
BT-549 breast = tested on: BT-549 breast
TK-10 renal = tested on: TK-10 renal
HCT-15 colon = tested on: HCT-15 colon
NCI-H226 lung = tested on: NCI-H226 lung
MOLT-4 leukemia = tested on: MOLT-4 leukemia
SF-268 CNS = tested on: SF-268 CNS
COLO 205 colon = tested on: COLO 205 colon
NCI/ADR-RES ovarian = tested on: NCI/ADR-RES ovarian
MDA-N = tested on: MDA-N
PC-3 prostate = tested on: PC-3 prostate
SNB-19 CNS = tested on: SNB-19 CNS
OVCAR-5 ovarian = tested on: OVCAR-5 ovarian
SK-MEL-2 melanoma = tested on: SK-MEL-2 melanoma
RXF 393 renal = tested on: RXF 393 renal
SK-MEL-5 melanoma = tested on: SK-MEL-5 melanoma
DU-145 prostate = tested on: DU-145 prostate
CAKI-1 renal = tested on: CAKI-1 renal
MALME-3M melanoma = tested on: MALME-3M melanoma
LOX IMVI melanoma = tested on: LOX IMVI melanoma
OVCAR-4 ovarian = tested on: OVCAR-4 ovarian
MDA-MB-231 breast = tested on: MDA-MB-231 breast
IGROV1 ovarian = tested on: IGROV1 ovarian
MCF7 breast = tested on: MCF7 breast
SN12C renal = tested on: SN12C renal
HS 578T breast = tested on: HS 578T breast
SR leukemia = tested on: SR leukemia
A549 NSCLC = tested on: A549 NSCLC
HL-60(TB) leukemia = tested on: HL-60(TB) leukemia
M14 melanoma = tested on: M14 melanoma
SK-MEL-28 melanoma = tested on: SK-MEL-28 melanoma
SF-295 CNS = tested on: SF-295 CNS
HCC-2998 colon = tested on: HCC-2998 colon
SK-OV-3 ovarian = tested on: SK-OV-3 ovarian
EKVX NSCLC = tested on: EKVX NSCLC
CCRF-CEM leukemia = tested on: CCRF-CEM leukemia
UO-31 renal = tested on: UO-31 renal
HOP-62 NSCLC = tested on: HOP-62 NSCLC
786-0 renal = tested on: 786-0 renal
T-47D breast = tested on: T-47D breast
UACC-257 melanoma = tested on: UACC-257 melanoma
U251 CNS = tested on: U251 CNS
KM12 colon = tested on: KM12 colon
HT29 colon = tested on: HT29 colon
SW-620 colon = tested on: SW-620 colon
UACC-62 melanoma = tested on: UACC-62 melanoma
K-562 leukemia = tested on: K-562 leukemia
OVCAR-8 ovarian = tested on: OVCAR-8 ovarian
SF-539 CNS = tested on: SF-539 CNS
NCI-H23 lung = tested on: NCI-H23 lung
HCT-116 colon = tested on: HCT-116 colon
NCI-H460 lung = tested on: NCI-H460 lung
NCI-H522 lung = tested on: NCI-H522 lung
MDA-MB-435 = tested on: MDA-MB-435
HOP-92 NSCLC = tested on: HOP-92 NSCLC
RPMI-8226 leukemia = tested on: RPMI-8226 leukemia
A498 renal = tested on: A498 renal

Structure (SMILES): CC(C1CCCC1=O)C1CCCC1=O (centres undefined)
- TGI (SNB-75 CNS): > 100 µM
- TGI (ACHN renal): > 100 µM
- TGI (BT-549 breast): > 100 µM
- TGI (TK-10 renal): > 100 µM
- TGI (HCT-15 colon): > 100 µM
- TGI (NCI-H226 lung): > 100 µM
- TGI (MOLT-4 leukemia): > 100 µM
- TGI (SF-268 CNS): > 100 µM
- TGI (COLO 205 colon): > 100 µM
- TGI (NCI/ADR-RES ovarian): > 100 µM
- TGI (MDA-N): > 100 µM
- TGI (PC-3 prostate): > 100 µM
- TGI (SNB-19 CNS): > 100 µM
- TGI (OVCAR-5 ovarian): > 100 µM
- TGI (SK-MEL-2 melanoma): > 100 µM
- TGI (RXF 393 renal): > 100 µM
- TGI (SK-MEL-5 melanoma): > 100 µM
- TGI (DU-145 prostate): > 100 µM
- TGI (CAKI-1 renal): > 100 µM
- TGI (MALME-3M melanoma): > 100 µM
- TGI (LOX IMVI melanoma): > 100 µM
- TGI (OVCAR-4 ovarian): > 100 µM
- TGI (MDA-MB-231 breast): > 100 µM
- TGI (IGROV1 ovarian): > 100 µM
- TGI (MCF7 breast): > 100 µM
- TGI (SN12C renal): > 100 µM
- TGI (HS 578T breast): > 100 µM
- TGI (SR leukemia): > 100 µM
- TGI (A549 NSCLC): > 100 µM
- TGI (HL-60(TB) leukemia): > 100 µM
- TGI (M14 melanoma): > 100 µM
- TGI (SK-MEL-28 melanoma): > 100 µM
- TGI (SF-295 CNS): > 100 µM
- TGI (HCC-2998 colon): > 100 µM
- TGI (SK-OV-3 ovarian): > 100 µM
- TGI (EKVX NSCLC): > 100 µM
- TGI (CCRF-CEM leukemia): > 100 µM
- TGI (UO-31 renal): > 100 µM
- TGI (HOP-62 NSCLC): > 100 µM
- TGI (786-0 renal): > 100 µM
- TGI (T-47D breast): > 100 µM
- TGI (UACC-257 melanoma): > 100 µM
- TGI (U251 CNS): > 100 µM
- TGI (KM12 colon): > 100 µM
- TGI (HT29 colon): > 100 µM
- TGI (SW-620 colon): > 100 µM
- TGI (UACC-62 melanoma): > 100 µM
- TGI (K-562 leukemia): > 100 µM
- TGI (OVCAR-8 ovarian): > 100 µM
- TGI (SF-539 CNS): > 100 µM
- TGI (NCI-H23 lung): > 100 µM
- TGI (HCT-116 colon): > 100 µM
- TGI (NCI-H460 lung): > 100 µM
- TGI (NCI-H522 lung): > 100 µM

Structure (SMILES): C=C1CC(Cn2cc(C)c(=O)[nH]c2=O)(c2ccc(Cl)cc2)OC1=O (centres undefined)
- TGI (MDA-MB-435): 15.1 µM
- TGI (SNB-75 CNS): 15.4 µM
- TGI (ACHN renal): 8 µM
- TGI (BT-549 breast): 2.86 µM
- TGI (TK-10 renal): 3.61 µM
- TGI (HCT-15 colon): 2.37 µM
- TGI (NCI-H226 lung): 30.6 µM
- TGI (MOLT-4 leukemia): 3.87 µM
- TGI (SF-268 CNS): 42.1 µM
- TGI (COLO 205 colon): 2.96 µM
- TGI (HOP-92 NSCLC): 1.58 µM
- TGI (NCI/ADR-RES ovarian): 17.9 µM
- TGI (MDA-N): 11.6 µM
- TGI (PC-3 prostate): 12.5 µM
- TGI (SNB-19 CNS): > 55.5 µM
- TGI (OVCAR-5 ovarian): 29.4 µM
- TGI (SK-MEL-2 melanoma): 5.48 µM
- TGI (SK-MEL-5 melanoma): 6.43 µM
- TGI (DU-145 prostate): 18.3 µM
- TGI (CAKI-1 renal): 3.93 µM
- TGI (MALME-3M melanoma): 4.89 µM
- TGI (LOX IMVI melanoma): 3.2 µM
- TGI (MDA-MB-231 breast): 9.82 µM
- TGI (IGROV1 ovarian): 3.41 µM
- TGI (SN12C renal): 21.2 µM
- TGI (HS 578T breast): 25.5 µM
- TGI (SR leukemia): 8.97 µM
- TGI (A549 NSCLC): 32.2 µM
- TGI (HL-60(TB) leukemia): 3.93 µM
- TGI (M14 melanoma): 2.54 µM
- TGI (SK-MEL-28 melanoma): 4.44 µM
- TGI (SF-295 CNS): > 34 µM
- TGI (HCC-2998 colon): 8.43 µM
- TGI (SK-OV-3 ovarian): 28.1 µM
- TGI (EKVX NSCLC): 18.7 µM
- TGI (CCRF-CEM leukemia): 4.01 µM
- TGI (UO-31 renal): 25.9 µM
- TGI (HOP-62 NSCLC): 33 µM
- TGI (786-0 renal): 2.99 µM
- TGI (T-47D breast): 5.19 µM
- TGI (UACC-257 melanoma): 3.75 µM
- TGI (U251 CNS): 30 µM
- TGI (KM12 colon): > 43 µM
- TGI (HT29 colon): 3.64 µM
- TGI (SW-620 colon): 3.38 µM
- TGI (UACC-62 melanoma): 7.48 µM
- TGI (RPMI-8226 leukemia): 1.95 µM
- TGI (A498 renal): 22.8 µM
- TGI (K-562 leukemia): 21.1 µM
- TGI (OVCAR-8 ovarian): 15.4 µM
- TGI (SF-539 CNS): 26 µM
- TGI (NCI-H23 lung): 10.4 µM
- TGI (HCT-116 colon): 3.29 µM
- TGI (NCI-H460 lung): 36.1 µM
- TGI (NCI-H522 lung): 1.35 µM
